Source: paper PMC4114559, “Pigment Dispersing Factor Regulates Ecdysone Biosynthesis via Bombyx Neuropeptide G Protein Coupled Receptor-B2 in the Prothoracic Glands of Bombyx mori” (PLoS ONE, 2014)
“Also recorded” adds a separate entry of the source. Numbered stars: 1 amine (or outer) side, 2 acyl side, 3 side chain; on linkers, the order of the positions; unused ones are H or OH. Bridge positions count the residues as written; N and C are the ends. Square brackets hold non-standard residues; d marks the D form. Ends that are not written are not given here. Peptide text beside a SMILES is read from it. I, II: the chains in the order shown. Actinocin(9to1) = Cc1c2oc3c(C)ccc(C(=O)[*:1])c3nc-2c(C(=O)[*:2])c(N)c1=O; NMeV = CN[C@H](C(=O)O)C(C)C; Sar = CNCC(=O)O

How the values were obtained:
PGs of B. mori = assay: Effect of inhibitors on induced ecdysone biosynthesis in cultured PGs; type: cell-based, Bombyx mori; settings: 15 min pre-treatment, 3 hours; for effect of inhibitor on PDF-induced ecdysone biosynthesis: n = 10
Experimental: (§1) Dissected PGs were rinsed with Grace's insect culture medium (Gibco) and pre-cultured individually in 100 µl medium in 96-well plates (BD Falcon) at 25°C for 30 min. To evaluate the effect of extracellular Ca^2+ on ecdysone biosynthesis, lepidopteran saline and lepidopteran saline using NaCl as a replacement for CaCl2 were used. For the pharmacological analysis, the PG was pre-treated with the inhibitor for 15 min during the pre-culture period. Following this treatment, the PG was cultured in the desired conditions for the desired period (Ecdysone assay: 3 hours; cAMP assay: 30 min; and Protein phosphorylation assay: 15 min). Actinomycin D, H-89 and cycloheximide (CHX) were purchased from Sigma; Rapamycin was purchased from Santa Cruz Biotechnology; and LY294002 was purchased from Merck. H-89 was dissolved in water. The other inhibitors were dissolved in DMSO. A 1% volume of the appropriate inhibitor was added to the culture medium.
Prior to ecdysteroids extraction, the 100 µl of cultured medium was diluted with equal volume of MilliQ water. After that, 400 µl of 1-butanol was added to the sample, vortexed for 3 min and centrifuged at 1,000×g for 10 min at 4°C. The 1-butanol phase was transferred to a new tube, and the solvent was evaporated using a centrifugal concentrator. The dried samples were re-dissolved in 50 µl of pure methanol for the following analysis. Quantification of ecdysteroids using LC-MS/MS was performed as previously described with some modifications. Ecdysteroids were separated by reverse-phase HPLC using a PEGASIL C8 column (3 µm, 2×100 mm, Senshu-pak, Senshu-kagaku) with gradient elution of acetonitrile (ACN)/water at a flow rate of 0.2 mL min^−1 (0–3 min (ACN = 10–75%), 3–20 min (75–85%), 20–25 min (100%)), on a Prominence UFLC system (Shimadzu). The separated ecdysteroids were quantified with the QTRAP5500 MS/MS system (AB SCIEX) using MRM mode. For the quantitative analysis, standard curves were generated with concentrations of 0.98–1000 ng/ml.
Because PDF stimulated the increase in intracellular cAMP levels in the PGs, the activation of PKA is likely involved in the PDF signaling pathway. One of the pathways downstream of active PKA is cAMP response element-binding protein (CREB)-mediated transcriptional regulation. First, we evaluated the effect of PDF on the transcript level of known ecdysone biosynthetic enzymes (Nvd, Nm-g, Spo, Phm, Dib and Sad) using Q-PCR. […] Therefore, de novo transcription was not required for PDF-mediated ecdysone biosynthesis for at least 3 hours. […]
(§2) Figure 4 Signaling pathways involved in PDF-induced ecdysone biosynthesis. […] The transcript levels of nvd, nm-g, spo, phm, dib and sad were quantified with Q-PCR. […] Statistically significant differences were evaluated by Student's t-test (***P<0.001, **P<0.01). […]

4E-BP = assay: p-4E-BP level in cultured PGs (Western blot); type: cell-based, Bombyx mori; settings: PI3K inhibitor LY294002 50 µM; immunoblotting
Experimental: as §1, with “Actinomycin D, H-89 and cycloheximide (CHX) were purchased from Sigma; Rapamycin was purchased from Santa Cruz Biotechnology; and LY294002 was purchased from Merck. H-89 was dissolved in water. The other inhibitors were dissolved in DMSO. A 1% volume of the appropriate inhibitor was added to the culture medium.” left out
Dissected PGs were pre-cultured in Grace's culture medium for 30 min, then cultured with or without PDF or PTTH for 15 min. The cultured PGs were sonicated in 50 mM Tris-HCl (pH 6.8) with protease inhibitor cocktail (Complete, Roche) and phosphatase inhibitor cocktail (Wako), lysed in 1x SDS sample buffer excluding 2-mercaptoethanol (2ME) and bromophenol blue (BPB), and the protein concentration was measured using the BCA protein assay kit (Pierce). […]
as §2

PGs = settings: cited from earlier work
Description: In many cases, a single hormone has multiple functions regulating many physiological phenomena. Thus, both the regulation of receptor expression in the target tissue and the regulation of hormone release are important for the hormone to only affect the target tissue at the appropriate time. In the case of PTTH, the titer of the hormone in the hemolymph is clearly correlated with the ecdysteroid titer ... || In insects, neuropeptide hormones affect the target tissue via humoral and neuronal pathways. […] The increase in intracellular cAMP is thought to be regulated by Ca^2+ signaling in the PTTH signaling pathway, [37]. […] PDF sig ... || (+ 1 further places)

C[C@@H]1C[C@@H]([C@H](O)CC2CC(=O)NC(=O)C2)C(=O)[C@@H](C)C1 [CHX, cycloheximide]
effect of inhibitor on PDF-induced ecdysone biosynthesis (PGs of B. mori; translation inhibitor CHX 0.2 mM): clearly inhibited ecdysone biosynthesis

O=S(=O)(NCCNC/C=C/c1ccc(Br)cc1)c1cccc2cnccc12 [H-89]
effect of inhibitor on PDF-induced ecdysone biosynthesis (PGs of B. mori; PKA inhibitor H-89 0.1 mM): clearly inhibited ecdysone biosynthesis; also recorded: inhibited PDF-induced ecdysone biosynthesis

O=c1cc(N2CCOCC2)oc2c(-c3ccccc3)cccc12 [LY294002, reference compound]
effect of inhibitor on phosphorylation of 4E-BP induced by PDF and PTTH (4E-BP): clearly suppressed the ecdysone biosynthesis and phosphorylation of 4E-BP induced by PDF and PTTH | effect of inhibitor on ecdysone biosynthesis induced by PDF and PTTH (PGs of B. mori; PI3K inhibitor LY294002 50 µM, n = 3 and 4): clearly suppressed the ecdysone biosynthesis

Cc1c2oc3c(C)ccc(C(=O)N[C@@H]4C(=O)N[C@H](C(C)C)C(=O)N5CCC[C@H]5C(=O)N(C)CC(=O)N(C)[C@@H](C(C)C)C(=O)O[C@@H]4C)c3nc-2c(C(=O)N[C@@H]2C(=O)N[C@H](C(C)C)C(=O)N3CCC[C@H]3C(=O)N(C)CC(=O)N(C)[C@@H](C(C)C)C(=O)O[C@@H]2C)c(N)c1=O [actinomycin D] (I: T[dV]P[Sar][NMeV] / II: T[dV]P[Sar][NMeV]; ester I:1-I:C, II:1-II:C; linker I:N-II:N via Actinocin(9to1))
effect of inhibitor on PDF-induced ecdysone biosynthesis (PGs of B. mori; transcription inhibitor ActD 10 µM): did not suppress PDF-induced ecdysone biosynthesis

CCCC(=O)Nc1ncnc2c1ncn2[C@@H]1O[C@@H]2COP(=O)(O)O[C@H]2[C@H]1OC(=O)CCC [dbcAMP, dibutyryl cyclic AMP, reference compound]
ecdysone biosynthesis in vitro (literature) (PGs; cell-permeable cAMP analog, in vitro, ref [27], [37]): can induce ecdysone biosynthesis in vitro | effect of a transcription inhibitor on PTTH- and dbcAMP-induced ecdysone biosynthesis (literature) (PGs; ref [39]): ecdysone biosynthesis was suppressed by a transcription inhibitor

diapause hormone: neuronal pathway-mediated tropic hormone (TDMKDESDRGAHSERGALWFGPRL; ends and bridges not checked; UniProt P09971 24-47, looked up) [reference compound]
EC50 (PGs; neuronal pathway-mediated tropic hormone, ref [32], read-out: EC50 of tropic hormone (literature)): 270 nM
